Data reported in the supplement of paper PMC8253809.

Key:
Experiment in all cases: growth inhibition relative to DMSO (0) and positive control (1) (fraction); higher = more growth inhibition
DIPGX29 [1] = system: DIPGX29 (H3.3 K27M diffuse intrinsic pontine glioma line)
Experimental: (§1)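 Single-agent arm (compound 2 only) of the paxalisib / mirdametinib dose-matrix plates, 7 days, adherent 384-well. CellTiter-Glo RLU was normalised to fractional activity between DMSO (0) and the positive control (1).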

HGGX42 [2] = system: HGGX42 (H3.3 G34R paediatric high-grade glioma line)
Experimental: as §1

HABS [3] = system: HABS (astrocyte control)
Experimental: as §1

HGGX6 [4] = system: HGGX6 (H3.3 G34R paediatric high-grade glioma line)
Experimental: as §1

DIPGX7 [5] = system: DIPGX7 (H3.3 K27M diffuse intrinsic pontine glioma line)
Experimental: as §1

iASTRO [6] = system: iASTRO (astrocyte control)
Experimental: as §1

DIPGX37 [7] = system: DIPGX37 (H3.3 K27M diffuse intrinsic pontine glioma line)
Experimental: as §1

DIPGX29 [8] = system: DIPGX29; remark: listed apart in the source
Experimental: (§2)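 Single-agent arm (compound 1 only) of the paxalisib / mirdametinib dose-matrix plates, 7 days, adherent 384-well. CellTiter-Glo RLU was normalised to fractional activity between DMSO (0) and the positive control (1).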

HGGX42 [9] = system: HGGX42; remark: listed apart in the source
Experimental: as §2

HABS [10] = system: HABS; remark: listed apart in the source
Experimental: as §2

HGGX6 [11] = system: HGGX6; remark: listed apart in the source
Experimental: as §2

DIPGX7 [12] = system: DIPGX7; remark: listed apart in the source
Experimental: as §2

iASTRO [13] = system: iASTRO; remark: listed apart in the source
Experimental: as §2

DIPGX37 [14] = system: DIPGX37; remark: listed apart in the source
Experimental: as §2

CC1(C)OCCn2c1nc1c(N3CCOCC3)nc(-c3cnc(N)nc3)nc12 [GDC0084]
growth inhibition
Settings | 0.009766 µM | 0.01953 µM | 0.03906 µM | 0.07812 µM | 0.15625 µM | 0.3125 µM | 0.625 µM | 1.25 µM | 5 µM | 20 µM
DIPGX7 [5] | – | – | 0.051 | 0.197 | 0.446 | 0.658 | 0.787 | 0.8579 | 0.9157 | 0.9671
DIPGX7 [12] | 0.0627 | 0.0708 | 0.104 | 0.186 | 0.381 | 0.622 | 0.771 | 0.8548 | 0.9176 | 0.977
DIPGX29 [1] | – | – | 0.0637 | 0.169 | 0.232 | 0.295 | 0.423 | 0.603 | 0.87 | 0.9389
DIPGX29 [8] | 0.073 | 0.102 | 0.178 | 0.216 | 0.266 | 0.357 | 0.491 | 0.595 | 0.8914 | 0.9212
DIPGX37 [7] | – | – | -0.00546 | 0.192 | 0.323 | 0.499 | 0.598 | 0.756 | 0.9558 | 0.99839
DIPGX37 [14] | -0.0429 | -0.0173 | 0.0381 | 0.138 | 0.304 | 0.453 | 0.566 | 0.71 | 0.9509 | 0.9986
HABS [3] | – | – | -0.0282 | 0.105 | 0.153 | 0.193 | 0.29 | 0.463 | 0.807 | 0.9834
HABS [10] | 0.075 | 0.0784 | 0.0871 | 0.118 | 0.171 | 0.208 | 0.326 | 0.489 | 0.807 | 0.9807
HGGX6 [4] | – | – | -0.045 | 0.0144 | 0.106 | 0.211 | 0.329 | 0.486 | 0.741 | 0.872
HGGX6 [11] | -0.0247 | -0.0158 | 0.0132 | 0.0493 | 0.125 | 0.232 | 0.359 | 0.507 | 0.758 | 0.869
HGGX42 [2] | – | – | 0.112 | 0.274 | 0.471 | 0.516 | 0.673 | 0.782 | 0.8721 | 0.898
HGGX42 [9] | 0.0532 | 0.0705 | 0.164 | 0.226 | 0.378 | 0.528 | 0.685 | 0.777 | 0.885 | 0.913
iASTRO [6] | – | – | 0.0361 | 0.0247 | 0.0269 | -0.0092 | -0.0383 | 0.0569 | 0.631 | 0.726
iASTRO [13] | 0.019 | 0.0114 | 0.00198 | 0.00243 | 0.00554 | -0.0144 | -0.0681 | -0.0251 | 0.577 | 0.706
